# Legend:
# [1] = tested on: MDA-MB-231 and MCF7 breast cancer cells; format: cell-based; conditions: for effect of substitution on activity compared to MKT-077: either cell line (MDA-MB-231, MCF7); for EC50: 72 h, read-out: EC50 (span over series and cell lines)
# [2] = tested on: mouse embryonic fibroblasts (MEFs); assay: MTT toxicity assay, mouse embryonic fibroblasts; format: cell-based; conditions: for EC50: Mus musculus, Fibroblast
# [3] = tested on: MDA-MB-231 and MCF7 cells; assay: p62 oligomerization / autophagic flux; format: cell-based; conditions: 24 h
# MDA-MB-231 cells = assay: Cleavage of caspase-3 and PARP; format: cell-based; conditions: 48 h
# MCF7 breast cancer cells = assay: MTT anti-proliferative assay, MCF7 cells; format: cell-based
# [4] = tested on: fibroblasts or normal epithelial cells; conditions: cited from earlier work
# [5] = tested on: MDA-MB-231 breast cancer cells; assay: MTT anti-proliferative assay, MDA-MB-231 cells; format: cell-based
# human Hsc70 = human Hsc70 (Homo sapiens, UniProt P11142); assay: ELISA binding of biotinylated analogs to immobilized Hsc70
# human Hsc70, sequence (P11142 whole entry): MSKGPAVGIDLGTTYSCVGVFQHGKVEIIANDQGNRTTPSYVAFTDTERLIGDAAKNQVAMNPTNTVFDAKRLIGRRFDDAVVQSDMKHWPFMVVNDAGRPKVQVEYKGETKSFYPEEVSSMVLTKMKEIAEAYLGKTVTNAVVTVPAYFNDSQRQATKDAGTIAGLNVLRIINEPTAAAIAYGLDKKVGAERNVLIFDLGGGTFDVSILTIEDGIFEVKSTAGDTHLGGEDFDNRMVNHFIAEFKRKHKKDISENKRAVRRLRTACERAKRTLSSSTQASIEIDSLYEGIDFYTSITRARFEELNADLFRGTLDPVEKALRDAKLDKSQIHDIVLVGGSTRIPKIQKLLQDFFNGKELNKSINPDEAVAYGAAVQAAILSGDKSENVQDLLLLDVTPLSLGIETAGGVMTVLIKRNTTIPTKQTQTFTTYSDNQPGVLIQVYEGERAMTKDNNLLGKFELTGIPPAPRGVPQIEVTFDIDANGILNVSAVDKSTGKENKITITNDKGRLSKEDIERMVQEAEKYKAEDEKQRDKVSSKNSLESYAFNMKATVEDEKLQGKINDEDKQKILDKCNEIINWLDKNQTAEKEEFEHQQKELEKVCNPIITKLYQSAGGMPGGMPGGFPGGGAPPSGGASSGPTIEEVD
smiles,measurement,setting,value
CN1/C(=c2\s/c(=C\c3cccc[n+]3C)n(Cc3ccccc3)c2=O)Sc2ccccc21.[Cl-] [compound 18],effect of substitution on activity compared to MKT-077,[1],did not substantially affect activity
CCn1c(=O)/c(=C2\Sc3c(F)cccc3N2C)s/c1=C\c1cccc[n+]1CC [compound 8],EC50,[1],0.8 to 13 µM
CCn1c(=O)/c(=C2\Sc3cc(F)ccc3N2C)s/c1=C\c1cccc[n+]1CC [compound 7],EC50,[1],0.8 to 13 µM
CCn1c(=O)/c(=C2\Sc3c(Cl)cccc3N2C)s/c1=C\c1cccc[n+]1C [compound 12],EC50,[1],4.1 to 28 µM
CCn1c(=O)/c(=C2\Sc3cc(Cl)ccc3N2C)s/c1=C\c1scc[n+]1Cc1ccccc1.[Cl-] [compound 30],activity against MEFs compared to MKT-077,[2],increased activity against MEFs
same,"autophagic flux (p62 oligomerization, p62 monomer)",[3],strongly affected autophagic flux
same,cleavage of caspase-3 and PARP,MDA-MB-231 cells,activated
CCn1c(=O)/c(=C2\Sc3c(F)cccc3N2C)s/c1=C\c1cccc[n+]1C [compound 4],EC50,[1],2.2 to 18 µM
CCn1c(=O)/c(=C2\Sc3ccccc3N2C)s/c1=C\c1scc[n+]1C.[Cl-] [compound 24],fold improvement in potency compared to MKT-077,MCF7 breast cancer cells,3 fold
CCn1c(=O)/c(=C2\Sc3cc(OC)ccc3N2C)s/c1=C\c1cccc[n+]1C [compound 14],EC50,[1],3 to 30 µM
CCn1c(=O)/c(=C2\Sc3ccc(OC)cc3N2C)s/c1=C\c1cccc[n+]1C [compound 13],EC50,[1],3 to 30 µM
"CCn1c(=O)/c(=C2\Sc3ccccc3N2C)s/c1=C\c1cccc[n+]1CC.[Cl-] [MKT-077, reference compound]",EC50,[2],> 50 µM
same,toxicity to fibroblasts or normal epithelial cells,[4],not toxic
CCn1c(=O)/c(=C2\Sc3cc(F)ccc3N2C)s/c1=C\c1cccc[n+]1C [compound 3],EC50,[1],2.2 to 18 µM
CCn1c(=O)/c(=C2\Sc3ccc(C(F)(F)F)cc3N2C)s/c1=C\c1cccc[n+]1C [compound 15],EC50,[1],3 to 30 µM
C=CCn1c(=O)/c(=C2\Sc3ccccc3N2C)s/c1=C\c1cccc[n+]1C.[Cl-] [compound 17],effect of substitution on activity compared to MKT-077,[1],did not substantially affect activity
CCn1c(=O)/c(=C2\Sc3ccccc3N2C)s/c1=C\c1nccc[n+]1C.[Cl-] [compound 23],fold reduction in potency,[1]; compared to MKT-077,approximately 2 fold
CCn1c(=O)/c(=C2\Sc3cccc(F)c3N2C)s/c1=C\c1scc[n+]1Cc1ccccc1.[Cl-] [compound 27],activity against MEFs compared to MKT-077,[2],increased activity against MEFs
same,fold improvement in potency compared to MKT-077,[5],more than 3 fold
same,fold improvement in potency compared to MKT-077,MCF7 breast cancer cells,2 fold
CCn1c(=O)/c(=C2\Sc3cccc(F)c3N2C)s/c1=C\c1cccc[n+]1CC [compound 5],EC50,[1],0.8 to 13 µM
CCn1c(=O)/c(=C2\Sc3cccc(F)c3N2C)s/c1=C\c1scc[n+]1Cc1ccc(CNC(=O)CCCC[C@@H]2SC[C@@H]3NC(=O)N[C@@H]32)cc1 [compound 32],Kd,human Hsc70,2.4 ± 0.4 µM
CCn1c(=O)/c(=C2\Sc3cccc(F)c3N2C)s/c1=C\c1cccc[n+]1CCCCCCNC(=O)CCCC[C@@H]1SC[C@@H]2NC(=O)N[C@@H]21 [compound 34],Kd,human Hsc70,10.9 ± 4.4 µM
"CCn1c(=O)/c(=C2\Sc3ccccc3N2C)s/c1=C\c1cccc[n+]1C.[Cl-] [YM-01, reference compound]",EC50,[2],> 50 µM
same,toxicity to fibroblasts or normal epithelial cells,[4],not toxic
CCn1c(=O)/c(=C2\Sc3ccccc3N2C)s/c1=C\c1cccc[n+]1Cc1ccccc1.[Cl-] [compound 20],fold improvement in activity compared to MKT-077,[1]; MDA-MB-231 and MCF7 cells,approximately 2 fold
CCn1c(=O)/c(=C2\Sc3cccc(F)c3N2C)s/c1=C\c1cccc[n+]1C [compound 1],EC50,[1],2.2 to 18 µM
CCn1c(=O)/c(=C2\Sc3cccc(Cl)c3N2C)s/c1=C\c1cccc[n+]1CCCCCCNC(=O)CCCC[C@@H]1SC[C@@H]2NC(=O)N[C@@H]21 [compound 38],Kd,human Hsc70,7.7 ± 1 µM
CCn1c(=O)/c(=C2\Sc3cc(C(F)(F)F)ccc3N2C)s/c1=C\c1cccc[n+]1C [compound 16],EC50,[1],3 to 30 µM
CCn1c(=O)/c(=C2\Sc3ccccc3N2C)s/c1=C\c1scc[n+]1Cc1ccccc1.[Cl-] [compound 26],fold improvement in potency compared to MKT-077,[5],2 fold
same,fold improvement in potency compared to MKT-077,MCF7 breast cancer cells,4 fold
CCn1c(=O)/c(=C2\Sc3ccc(F)cc3N2C)s/c1=C\c1cccc[n+]1CC [compound 6],EC50,[1],0.8 to 13 µM
CCn1c(=O)/c(=C2\Sc3cc(Cl)ccc3N2C)s/c1=C\c1cccc[n+]1C [compound 11],EC50,[1],4.1 to 28 µM
CCn1c(=O)/c(=C2\Sc3ccc(F)cc3N2C)s/c1=C\c1cccc[n+]1C [compound 2],EC50,[1],2.2 to 18 µM
CCn1c(=O)/c(=C2\Sc3cccc(Cl)c3N2C)s/c1=C\c1cccc[n+]1C [compound 9],EC50,[1],4.1 to 28 µM
CCn1c(=O)/c(=C2\Sc3ccc(Cl)cc3N2C)s/c1=C\c1cccc[n+]1C [compound 10],EC50,[1],4.1 to 28 µM

# Reference: article PMC3845967 (ACS medicinal chemistry letters, 2013)
